Assays:
Format in all cases: cell-based
human TLR8 = target: T1, human TLR8 (Homo sapiens, UniProt Q9NR97); assay: HEK-Blue TLR8 NF-κB SEAP reporter assay; settings: HEK-Blue TLR8 cells; for EC50: 18 h, eight concentrations (1 nM to 10 μM), mean ± SEM; for TLR8 agonistic activity (in words): up to 10 μM
T1 construct: host or cells: HEK-Blue TLR8 (HEK293-derived)
T1 sequence (Q9NR97 27-1041): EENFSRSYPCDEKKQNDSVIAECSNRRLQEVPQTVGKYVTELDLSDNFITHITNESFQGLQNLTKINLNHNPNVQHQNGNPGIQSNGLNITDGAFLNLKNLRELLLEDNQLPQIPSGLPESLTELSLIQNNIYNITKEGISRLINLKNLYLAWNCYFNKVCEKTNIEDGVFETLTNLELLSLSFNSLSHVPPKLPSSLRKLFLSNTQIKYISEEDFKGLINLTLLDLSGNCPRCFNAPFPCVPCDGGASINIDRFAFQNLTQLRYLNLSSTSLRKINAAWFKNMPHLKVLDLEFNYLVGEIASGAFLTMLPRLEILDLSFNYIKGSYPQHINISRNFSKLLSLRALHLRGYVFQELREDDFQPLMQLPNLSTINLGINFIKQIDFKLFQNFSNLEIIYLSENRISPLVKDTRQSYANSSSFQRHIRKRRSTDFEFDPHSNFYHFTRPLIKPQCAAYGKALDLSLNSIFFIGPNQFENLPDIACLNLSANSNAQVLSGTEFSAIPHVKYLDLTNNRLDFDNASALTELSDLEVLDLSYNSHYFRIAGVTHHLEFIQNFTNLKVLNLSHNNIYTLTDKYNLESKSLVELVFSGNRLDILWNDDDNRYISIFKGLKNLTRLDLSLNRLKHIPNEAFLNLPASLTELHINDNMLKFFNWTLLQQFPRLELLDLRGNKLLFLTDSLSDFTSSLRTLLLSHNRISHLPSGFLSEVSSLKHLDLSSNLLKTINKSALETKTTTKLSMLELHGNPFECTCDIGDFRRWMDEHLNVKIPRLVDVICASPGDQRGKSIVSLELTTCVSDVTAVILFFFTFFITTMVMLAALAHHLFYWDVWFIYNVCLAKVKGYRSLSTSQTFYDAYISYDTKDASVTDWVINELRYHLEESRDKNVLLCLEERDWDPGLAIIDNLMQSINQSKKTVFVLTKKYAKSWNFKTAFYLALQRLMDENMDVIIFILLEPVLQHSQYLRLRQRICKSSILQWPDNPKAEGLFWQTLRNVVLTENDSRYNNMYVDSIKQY
Text: (§1) The building blocks and synthesized conjugates were initially assessed for their receptor-specific activities toward NOD2, TLR7 and TLR8 using the commercially available HEK-Blue NOD2, TLR7 and TLR8 reporter cell lines. These cell lines were derived from HEK293 cells by cotransfection of human NOD2/TLR7/TLR8 and an NF-κB-inducible secreted embryonic alkaline phosphatase (SEAP). Activation of NOD2/TLR7/TLR8, and subsequently of NF-κB, leads to the expression and secretion of SEAP, the levels of which can be quantified colorimetrically. […]
(§2) 3.1. Hek-Blue NOD2, TLR7 and TLR8 cells.
(§3) HEK-Blue NOD2, TLR7, and TLR8 cells (Invivogen, San Diego, CA, USA) were cultured according to the manufacturer instructions in Dulbecco’s modified Eagle’s medium (Sigma-Aldrich, St. Louis, MO, USA) supplemented with 10% heat-inactivated fetal bovine serum (Gibco), 2 mM L-glutamine (Sigma-Aldrich), 100 U/mL penicillin (Sigma-Aldrich), 100 µg/mL streptomycin (Sigma-Aldrich), and 100 µg/mL Normocin (Invivogen) for two passages. All subsequent passages of NOD2 and TLR8 cells were cultured in medium additionally supplemented with 100 µg/mL Zeocin and 30 µg/mL Blasticidin (Invivogen) and of TLR7 cells with 100 µg/mL Zeocin and 10 µg/mL Blasticidin. […]
(§4) The tested compounds were dissolved in DMSO and further diluted in culture medium to the desired final concentrations, such that the final DMSO concentration never exceeded 0.1%. […]
(§5) 3.4 NOD2/TLR7/TLR8 NF-kB reporter assay
(§6) HEK-Blue NOD2 cells (25,000 cells/well), TLR7 and TLR8 cells (40,000 cells/well) were seeded in 96-well plates in 100 µL HEK-Blue detection medium (Invivogen, San Diego, CA, USA) and treated with […]
(§7) corresponding vehicle (0.1% DMSO). After 18 h of incubation (37 °C, 5% CO2), secreted embryonic

human NOD2 = target: T2, human NOD2 (Homo sapiens, UniProt Q9HC29); assay: HEK-Blue NOD2 NF-κB SEAP reporter assay; settings: HEK-Blue NOD2 cells
T2 construct: host or cells: HEK-Blue NOD2 (HEK293-derived)
T2 sequence (Q9HC29 whole entry): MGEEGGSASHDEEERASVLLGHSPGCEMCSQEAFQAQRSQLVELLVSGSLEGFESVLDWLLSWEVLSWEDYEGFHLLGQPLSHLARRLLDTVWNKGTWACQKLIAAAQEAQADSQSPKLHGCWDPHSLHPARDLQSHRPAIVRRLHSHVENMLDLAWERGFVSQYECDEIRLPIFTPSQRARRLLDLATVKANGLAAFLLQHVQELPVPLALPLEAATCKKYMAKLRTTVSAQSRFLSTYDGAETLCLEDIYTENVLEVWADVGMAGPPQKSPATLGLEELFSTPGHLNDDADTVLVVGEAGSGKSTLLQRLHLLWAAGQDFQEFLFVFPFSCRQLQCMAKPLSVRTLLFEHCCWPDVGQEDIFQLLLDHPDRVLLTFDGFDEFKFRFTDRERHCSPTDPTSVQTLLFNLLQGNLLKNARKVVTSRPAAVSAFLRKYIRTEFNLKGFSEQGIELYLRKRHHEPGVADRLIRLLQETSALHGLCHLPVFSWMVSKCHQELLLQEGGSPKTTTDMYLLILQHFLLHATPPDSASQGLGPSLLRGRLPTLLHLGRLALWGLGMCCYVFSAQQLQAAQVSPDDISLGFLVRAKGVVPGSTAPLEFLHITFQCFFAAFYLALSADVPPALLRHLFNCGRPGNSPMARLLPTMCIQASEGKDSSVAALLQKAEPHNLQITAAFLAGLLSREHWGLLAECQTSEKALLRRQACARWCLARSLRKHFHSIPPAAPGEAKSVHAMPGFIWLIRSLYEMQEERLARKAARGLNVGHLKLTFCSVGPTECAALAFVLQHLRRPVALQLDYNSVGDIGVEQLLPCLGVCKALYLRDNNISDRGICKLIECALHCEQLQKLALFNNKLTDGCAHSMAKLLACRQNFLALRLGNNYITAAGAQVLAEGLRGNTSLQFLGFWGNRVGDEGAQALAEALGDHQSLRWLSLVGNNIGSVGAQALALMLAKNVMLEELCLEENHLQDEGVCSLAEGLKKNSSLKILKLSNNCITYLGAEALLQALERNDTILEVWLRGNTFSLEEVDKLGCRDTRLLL
Text: as §1, §2, §3, §4, §5, §6, §7

human TLR7 = target: T3, human TLR7 (Homo sapiens, UniProt Q9NYK1); assay: HEK-Blue TLR7 NF-κB SEAP reporter assay; settings: HEK-Blue TLR7 cells
T3 construct: host or cells: HEK-Blue TLR7 (HEK293-derived)
T3 sequence (Q9NYK1 27-1049): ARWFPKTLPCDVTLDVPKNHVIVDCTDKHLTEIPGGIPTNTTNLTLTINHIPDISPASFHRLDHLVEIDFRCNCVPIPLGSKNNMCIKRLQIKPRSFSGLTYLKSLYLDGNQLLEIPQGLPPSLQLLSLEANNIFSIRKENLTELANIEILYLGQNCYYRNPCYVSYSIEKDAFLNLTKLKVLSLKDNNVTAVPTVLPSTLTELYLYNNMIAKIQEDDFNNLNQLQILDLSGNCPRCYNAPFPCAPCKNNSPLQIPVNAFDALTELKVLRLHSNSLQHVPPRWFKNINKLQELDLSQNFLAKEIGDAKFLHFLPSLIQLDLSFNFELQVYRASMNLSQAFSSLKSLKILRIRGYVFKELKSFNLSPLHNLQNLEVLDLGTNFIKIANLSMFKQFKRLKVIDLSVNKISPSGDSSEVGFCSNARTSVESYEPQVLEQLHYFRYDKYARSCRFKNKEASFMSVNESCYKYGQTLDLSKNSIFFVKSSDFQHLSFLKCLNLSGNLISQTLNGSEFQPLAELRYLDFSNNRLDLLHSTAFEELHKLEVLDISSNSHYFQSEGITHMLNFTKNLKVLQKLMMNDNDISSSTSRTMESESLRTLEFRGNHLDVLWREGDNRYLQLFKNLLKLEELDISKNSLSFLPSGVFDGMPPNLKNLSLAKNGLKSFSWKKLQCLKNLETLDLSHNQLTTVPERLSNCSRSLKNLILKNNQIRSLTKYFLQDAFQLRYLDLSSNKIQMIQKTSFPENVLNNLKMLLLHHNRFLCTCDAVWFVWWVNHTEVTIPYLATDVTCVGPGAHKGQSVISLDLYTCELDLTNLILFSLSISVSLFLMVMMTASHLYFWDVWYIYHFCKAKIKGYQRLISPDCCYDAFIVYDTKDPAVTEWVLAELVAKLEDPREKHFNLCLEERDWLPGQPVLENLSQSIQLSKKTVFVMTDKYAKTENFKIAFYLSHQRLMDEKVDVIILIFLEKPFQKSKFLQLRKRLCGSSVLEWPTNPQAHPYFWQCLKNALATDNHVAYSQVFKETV
Text: as §1, §2, §3, §4, §5, §6, §7

[1] = 18 h, eight concentrations (1 nM to 10 μM), mean ± SEM

Compound	EC50 (human TLR8)	TLR8 agonistic activity (in words) (human TLR8)	EC50 (human NOD2; [1])	EC50 (human TLR7)	EC50 (human TLR7; [1])	EC50 (human NOD2)	TLR7 agonistic activity (in words) (human TLR7; up to 10 μM)
CCOCc1nc2c(N)nc3ccccc3c2n1CC(C)(C)NC(=O)CCCCCNC(=O)CC[C@@H](NC(=O)[C@@H](NC(=O)CNC(=O)/C=C/c1ccc(O)c(OC)c1)C(C)C)C(=O)OCC [compound 33]	> 10 µM	neither 32 nor 33 were able to induce any TLR8 agonistic activity	> 10 µM	5.3 µM	5.29 ± 1.5 µM		
CCOCc1nc2c(NC(=O)CCCCCNC(=O)CC[C@@H](NC(=O)[C@@H](NC(=O)CNC(=O)/C=C/c3ccc(O)c(OC)c3)C(C)C)C(=O)OCC)nc3ccccc3c2n1CC(C)(C)O [compound 32]	> 10 µM	neither 32 nor 33 were able to induce any TLR8 agonistic activity	7.23 ± 0.499 µM		> 10 µM	7.2 µM	devoid of TLR7 agonistic activity

Reference: publication PMC11583123, “Linker Chemistry and Connectivity Fine-Tune the Immune Response and Kinetic Solubility of Conjugated NOD2/TLR7 Agonists” (Bioconjugate Chemistry, 2024)
